Reference: the NIST ThermoML archive (doi:10.1021/acs.jced.5b00537)

How the values were obtained:
[1] = Liquid; for viscosity: Cone and plate viscometry; for mass density: Vibrating tube method; for vapor or sublimation pressure: Ebulliometric method (Recirculating still)
[2] = xn = mol fraction of the nth substance listed; settings: 100 kPa, Liquid, x2 = 0; for viscosity: Cone and plate viscometry; for mass density: Vibrating tube method

CC(C)CO [2-methyl-1-propanol]
[1]
Settings | mass density, 101 kPa [kg/m3] | mass density, 101.33 kPa [kg/m3] | viscosity, 101 kPa [mPa·s]
293.15 K | 801.75 | – | 4.315
298.15 K | – | 797.83 | –
303.15 K | 794.16 | – | 3.089
313.15 K | 786.27 | – | 2.261
323.15 K | 778.28 | – | 1.701
333.15 K | 769.74 | – | 1.29
343.15 K | 760.83 | – | –
353.15 K | 751.67 | – | –
363.15 K | 741.9 | – | –

[1]
Settings | vapor or sublimation pressure [kPa]
296.87 K | 1.391
298.77 K | 1.593
300.53 K | 1.796
302.12 K | 1.995
302.29 K | 2
302.3 K | 2
309.88 K | 3.289
311.74 K | 3.692
313.42 K | 4.095
314.93 K | 4.489
316.71 K | 4.991
316.78 K | 4.995
322.51 K | 6.986
323.97 K | 7.587
325.33 K | 8.182
326.61 K | 8.784
327.82 K | 9.384
329.01 K | 9.99
329.02 K | 9.989
336.03 K | 14.47
337.45 K | 15.56
338.83 K | 16.66
340.11 K | 17.76
342.37 K | 19.95
342.51 K | 19.99
342.52 K | 19.99
357.51 K | 39.95
357.52 K | 39.94
362.71 K | 49.87
367.13 K | 59.85
370.94 K | 69.83
374.36 K | 79.82
377.44 K | 89.76
378.97 K | 94.99

CC(C)CO [2-methyl-1-propanol] + CCC(C)(C)O
[2]
Settings | mass density [kg/m3] | viscosity [mPa·s]
293.15 K | 801.75 | 4.315
303.15 K | 794.16 | 3.089
313.15 K | 786.27 | 2.261
323.15 K | 778.28 | 1.701
333.15 K | 769.74 | 1.29
343.15 K | 760.83 | –
353.15 K | 751.67 | –
363.15 K | 741.9 | –

CCC(C)(C)O [2-methylbutan-2-ol]
[1]
Settings | mass density, 101 kPa [kg/m3] | mass density, 101.33 kPa [kg/m3] | viscosity, 101 kPa [mPa·s]
293.15 K | 808.77 | – | 4.596
298.15 K | – | 804.28 | –
303.15 K | 799.74 | – | 2.983
313.15 K | 790.35 | – | 2.078
323.15 K | 780.66 | – | 1.494
333.15 K | 770.4 | – | 1.093
343.15 K | 759.8 | – | –
353.15 K | 749.13 | – | –
363.15 K | 738.77 | – | –

[1]
Settings | vapor or sublimation pressure [kPa]
296.61 K | 1.992
296.7 K | 1.99
297.94 K | 2.19
299.29 K | 2.388
300.33 K | 2.589
301.46 K | 2.791
302.54 K | 2.999
310.7 K | 4.984
311.35 K | 5.181
311.98 K | 5.383
312.29 K | 5.49
313.76 K | 5.991
315.13 K | 6.487
316.4 K | 6.987
317.37 K | 7.387
322.63 K | 9.978
322.92 K | 10
323.15 K | 10.18
323.49 K | 10.38
323.84 K | 10.58
324.14 K | 10.78
324.51 K | 10.97
325.37 K | 11.57
326.73 K | 12.38
327.62 K | 12.97
327.81 K | 13.17
329.05 K | 13.97
330.38 K | 14.96
336.11 K | 19.94
336.26 K | 19.99
337.58 K | 21.45
338.97 K | 22.94
340.32 K | 24.44
341.57 K | 25.93
341.59 K | 25.92
342.39 K | 26.94
348.11 K | 34.91
351.17 K | 39.89
351.33 K | 39.95
353.93 K | 44.88
356.46 K | 49.88
361.02 K | 59.92
372.63 K | 93.14
373.16 K | 94.89
373.29 K | 95.01
373.6 K | 96.54
374.05 K | 98.01
374.53 K | 99.81
374.93 K | 101.04
376.03 K | 104.99
377.33 K | 109.95
378.63 K | 115.02
379.87 K | 120.01
381.05 K | 124.96
